“Also recorded” adds a separate entry of the source.
What was measured:
RPE cells [1] = assay: FISH for hypoxia-dependent site-specific copy gain; type: cell-based, human
Protocol: Cells were plated onto culture dishes and allowed to adhere for 20-24 hours in normoxia (5% CO2, 21% O2, and 74% N2). For hypoxic treatment, cells were maintained in a HERA™ Cell 150 incubator (Thermo Scientific) flushed with 5% CO2, 1% O2, and balanced with N2 for the duration of the experiment. Incubator calibrations and verifications were carried out by Bianchi Associates Calibrations/Verifications.
For G1/S synchronization, cells were treated with 2 mM hydroxyurea (HU, Sigma) for 20 hours. To release, cells were washed twice with culture medium pre-conditioned in normoxia or hypoxia, and supplied with fresh pre-conditioned media. For JIB-04 treatment, normoxic cells were pre-treated with 62.5 nM JIB-04 (Xcessbio) for 24 hours, and then treated again with JIB-04 and either transferred to 1% O2 or maintained in normoxia for an additional 24 hours. […]
FISH was performed as described in (Manning et al. 2010; Black et al. 2013). For RPE cells, copy gain was scored as any cell with 3 or more distinct foci. Approximately 100 cells for each replicate were scored for all experiments. […]
FISH was performed as described in (Manning et al. 2010; Black et al. 2013). […] Images of multiple planes of fields of nuclei were acquired on an Olympus IX81™ Spinning Disk Microscope and analyzed using Slidebook 5.0™ software. […] Any foci that were touching were scored as a single copy to prevent increased numbers due to normally replicated foci. For RPE cells, copy gain was scored as any cell with 3 or more distinct foci. For 293T cells, copy gain was scored for any cell with 5 or more distinct foci. For UMRC2 cells, copy gain was scored for any cell with 6 or more foci. For SK-N-AS cells, copy gain was scored for any cell with 5 or more foci. For MDA-MB-468 cells, copy gain was scored for any cell with 5 or more foci. For MDA-MB-231 cells, copy gain was scored for any cell with 7 or more foci. Approximately 100 cells for each replicate were scored for all experiments. […]

KDM4A = assay: Western blot of KDM4A protein levels in hypoxia; type: cell-based, human; conditions: RPE cells, 1% O2; for KDM4A stabilization / protein levels in hypoxia: 2 mM succinate
Protocol: Western blots were performed as in (Black et al. 2010).
Western Blots. Western blots were performed as in (Black et al. 2010). Briefly, adherent cells were either scraped directly into PBS, or washed with PBS, trypsinized and collected by centrifuging at 2,000 RPM for 5 minutes. For preparation of whole-cell lysates, cell pellets were washed once in ice-cold PBS and resuspended in RIPA lysis buffer [50 mM Tris pH 7.4, 150 mM NaCl, 0.25% Sodium Deoxycholate, 1% NP40, 1 mM EDTA, 10% Glycerol] supplemented with cOmplete protease inhibitor and PhosSTOP phosphatase inhibitor cocktails (Roche). Cells were lysed on ice for 15 minutes and immediately frozen at −80° C. for 10 minutes. Lysates were subsequently sonicated at 70% amplitude for 15 minutes in a QSonica Q700 sonicator and cleared of cell debris by centrifuging at 12,000 RPM for 15 minutes, before being analyzed by western blotting. For HIF1α and HIF2a expression, adherent cells were washed twice with ice-cold PBS and scraped directly in warmed 1× Laemmli buffer. Samples were sonicated at 70% amplitude for 15 minutes in a QSonica Q700™ and boiled at 95° C. for 10 minutes immediately prior to western blotting.

RPE cells [2] = assay: Cell cycle analysis by flow cytometry; type: cell-based, human; conditions: for cell cycle progression in hypoxia: 2 mM succinate
Protocol: Asynchronously growing, or G1/S arrested cells were prepared and fixed as in (Black et al. 2010). Cells were stained with 10 μM EdU for 1 hour prior to collection. Cell cycle was analyzed by PI staining or EdU incorporation using Click-IT EdU™ Flow Cytometry Assay Kit (Life Technologies). Flow cytometry of CD4+ T cells and cell cycle distribution were analyzed using a BD FACS ARIA II™.

JmjC-containing proteins = conditions: Smith et al. 2007; Black et al. 2012; cited from earlier work
KDM4 family = conditions: Wang et al. 2013; cited from earlier work
KDM5A = KDM5A (Homo sapiens, UniProt P29375); conditions: Wang et al. 2013; cited from earlier work
KDM6B = KDM6B (Homo sapiens, UniProt O15054); conditions: Wang et al. 2013; cited from earlier work
RPE cells [3] = assay: Screen of chemical and metabolic stresses for site-specific copy gain (FISH); type: cell-based, human; conditions: 24 h treatment: 60 μM H2O2, 2 μg/ml Tunicamycin, 2 mM DTT, 5 mM NAC, 1 μM DMNQ
Protocol: Cells were treated with the following chemical and metabolic stresses for 24 hours at doses used in the literature: 2 μg/ml Tunicamycin (TU, Abcam), 60 μM H2O2(Thermo Fisher Scientific), reduced-serum DMEM (0.1% FBS), Glucose-free DMEM (No Gluc, GIBCO), 2 mM DTT (Sigma), 5 mM N-acetyl Cysteine (NAC, Sigma), and 1 μM 2,3-Dimethoxy-1,4-naphthoquinone (DMNQ, Sigma). For heat shock (HS) treatment, cells were incubated at 43° C. for 30 minutes and returned to 37° C. for 24 hours prior to collection.
FISH was performed as described in (Manning et al. 2010; Black et al. 2013). For RPE cells, copy gain was scored as any cell with 3 or more distinct foci. Approximately 100 cells for each replicate were scored for all experiments. All FISH experiments include at least 2 biological replicates. For each experiment at least one replicate includes FACS and western blot from the same cells used for FISH. For knockdown experiments, at least two different siRNA were used for each target. Results are presented as the average from both of the independent siRNAs.
FISH was performed as described in (Manning et al. 2010; Black et al. 2013). Probes for 1q12h, 1q telomere, chromosome 8 centromere (alpha satellite), and X centromere (alpha satellite) were purchased from Rainbow Scientific. Probes for Zebrafish BCL9 (CH73-15J19) and Zebrafish IGBP1 (CH73-223D24) were purchased as BAC clones from Children's Hospital Oakland Research Institute (CHORI BacPac) clone repository. Probes for 1q21.2 (BCL9) and 1q23.3 were purchased from Agilent (SureFISH). BACS were prepared utilizing PureLink HiPure™ Plasmid Filter Maxiprep kit (Life Technologies) using the recommended modified wash buffer. Probes were nick translated (Abbot Molecular Kit) in the presence of fluorescently labeled dTTP (Enzo Life Science). Images of multiple planes of fields of nuclei were acquired on an Olympus IX81™ Spinning Disk Microscope and analyzed using Slidebook 5.0™ software. We used a conservative scoring metric for copy gain. Any foci that were touching were scored as a single copy to prevent increased numbers due to normally replicated foci. For RPE cells, copy gain was scored as any cell with 3 or more distinct foci. For 293T cells, copy gain was scored for any cell with 5 or more distinct foci. For UMRC2 cells, copy gain was scored for any cell with 6 or more foci. For SK-N-AS cells, copy gain was scored for any cell with 5 or more foci. For MDA-MB-468 cells, copy gain was scored for any cell with 5 or more foci. For MDA-MB-231 cells, copy gain was scored for any cell with 7 or more foci. Approximately 100 cells for each replicate were scored for all experiments. All FISH experiments include at least 2 biological replicates. For each experiment, at least one replicate includes FACS and western blot from the same cells used for FISH. For knockdown experiments, at least two different siRNA were used for each target. Results are presented as the average from both of the independent siRNAs.

Chain of KDM6B (O15054 whole entry, species assumed): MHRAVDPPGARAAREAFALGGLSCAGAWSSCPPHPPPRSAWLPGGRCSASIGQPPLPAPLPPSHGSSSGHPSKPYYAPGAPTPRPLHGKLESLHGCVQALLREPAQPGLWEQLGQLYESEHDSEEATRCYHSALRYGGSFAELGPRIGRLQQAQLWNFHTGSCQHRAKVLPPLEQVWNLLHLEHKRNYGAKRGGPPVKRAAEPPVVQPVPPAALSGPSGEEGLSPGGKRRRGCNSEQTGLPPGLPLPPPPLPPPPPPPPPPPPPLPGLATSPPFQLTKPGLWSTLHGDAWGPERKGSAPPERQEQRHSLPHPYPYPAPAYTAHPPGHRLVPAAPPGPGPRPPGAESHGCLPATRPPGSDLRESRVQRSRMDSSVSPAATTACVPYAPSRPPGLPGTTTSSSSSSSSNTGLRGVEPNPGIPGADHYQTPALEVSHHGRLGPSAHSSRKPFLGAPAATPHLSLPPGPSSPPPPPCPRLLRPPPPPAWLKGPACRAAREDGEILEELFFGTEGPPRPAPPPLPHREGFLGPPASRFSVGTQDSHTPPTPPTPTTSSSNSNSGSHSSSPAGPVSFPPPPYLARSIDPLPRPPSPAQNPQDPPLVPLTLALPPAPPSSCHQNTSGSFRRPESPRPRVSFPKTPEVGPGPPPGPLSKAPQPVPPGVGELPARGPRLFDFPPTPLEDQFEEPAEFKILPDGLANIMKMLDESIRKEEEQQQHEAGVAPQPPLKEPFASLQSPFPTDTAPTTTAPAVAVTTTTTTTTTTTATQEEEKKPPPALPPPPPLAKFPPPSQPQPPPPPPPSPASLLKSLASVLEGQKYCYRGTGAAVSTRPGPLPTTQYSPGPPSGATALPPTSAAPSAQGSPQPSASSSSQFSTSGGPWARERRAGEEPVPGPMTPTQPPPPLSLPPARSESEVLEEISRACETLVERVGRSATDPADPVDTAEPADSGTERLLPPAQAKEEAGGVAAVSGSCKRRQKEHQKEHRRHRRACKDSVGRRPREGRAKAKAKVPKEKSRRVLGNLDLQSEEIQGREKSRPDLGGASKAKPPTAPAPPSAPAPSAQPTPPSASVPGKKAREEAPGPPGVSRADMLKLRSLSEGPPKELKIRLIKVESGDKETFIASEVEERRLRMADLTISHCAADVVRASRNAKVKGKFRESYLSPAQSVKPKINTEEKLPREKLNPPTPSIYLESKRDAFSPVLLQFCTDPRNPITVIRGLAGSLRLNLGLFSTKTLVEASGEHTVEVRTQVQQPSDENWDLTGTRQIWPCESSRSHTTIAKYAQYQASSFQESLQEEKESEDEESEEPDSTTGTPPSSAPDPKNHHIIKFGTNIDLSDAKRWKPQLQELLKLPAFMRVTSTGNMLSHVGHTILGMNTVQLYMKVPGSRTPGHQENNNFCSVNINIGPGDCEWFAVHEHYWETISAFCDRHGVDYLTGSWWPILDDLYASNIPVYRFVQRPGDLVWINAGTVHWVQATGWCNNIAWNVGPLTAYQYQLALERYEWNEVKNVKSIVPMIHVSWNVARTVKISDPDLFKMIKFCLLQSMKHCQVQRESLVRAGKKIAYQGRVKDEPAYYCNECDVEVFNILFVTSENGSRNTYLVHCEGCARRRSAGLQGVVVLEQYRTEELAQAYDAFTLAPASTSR
Chain of KDM5A (P29375 whole entry, species assumed): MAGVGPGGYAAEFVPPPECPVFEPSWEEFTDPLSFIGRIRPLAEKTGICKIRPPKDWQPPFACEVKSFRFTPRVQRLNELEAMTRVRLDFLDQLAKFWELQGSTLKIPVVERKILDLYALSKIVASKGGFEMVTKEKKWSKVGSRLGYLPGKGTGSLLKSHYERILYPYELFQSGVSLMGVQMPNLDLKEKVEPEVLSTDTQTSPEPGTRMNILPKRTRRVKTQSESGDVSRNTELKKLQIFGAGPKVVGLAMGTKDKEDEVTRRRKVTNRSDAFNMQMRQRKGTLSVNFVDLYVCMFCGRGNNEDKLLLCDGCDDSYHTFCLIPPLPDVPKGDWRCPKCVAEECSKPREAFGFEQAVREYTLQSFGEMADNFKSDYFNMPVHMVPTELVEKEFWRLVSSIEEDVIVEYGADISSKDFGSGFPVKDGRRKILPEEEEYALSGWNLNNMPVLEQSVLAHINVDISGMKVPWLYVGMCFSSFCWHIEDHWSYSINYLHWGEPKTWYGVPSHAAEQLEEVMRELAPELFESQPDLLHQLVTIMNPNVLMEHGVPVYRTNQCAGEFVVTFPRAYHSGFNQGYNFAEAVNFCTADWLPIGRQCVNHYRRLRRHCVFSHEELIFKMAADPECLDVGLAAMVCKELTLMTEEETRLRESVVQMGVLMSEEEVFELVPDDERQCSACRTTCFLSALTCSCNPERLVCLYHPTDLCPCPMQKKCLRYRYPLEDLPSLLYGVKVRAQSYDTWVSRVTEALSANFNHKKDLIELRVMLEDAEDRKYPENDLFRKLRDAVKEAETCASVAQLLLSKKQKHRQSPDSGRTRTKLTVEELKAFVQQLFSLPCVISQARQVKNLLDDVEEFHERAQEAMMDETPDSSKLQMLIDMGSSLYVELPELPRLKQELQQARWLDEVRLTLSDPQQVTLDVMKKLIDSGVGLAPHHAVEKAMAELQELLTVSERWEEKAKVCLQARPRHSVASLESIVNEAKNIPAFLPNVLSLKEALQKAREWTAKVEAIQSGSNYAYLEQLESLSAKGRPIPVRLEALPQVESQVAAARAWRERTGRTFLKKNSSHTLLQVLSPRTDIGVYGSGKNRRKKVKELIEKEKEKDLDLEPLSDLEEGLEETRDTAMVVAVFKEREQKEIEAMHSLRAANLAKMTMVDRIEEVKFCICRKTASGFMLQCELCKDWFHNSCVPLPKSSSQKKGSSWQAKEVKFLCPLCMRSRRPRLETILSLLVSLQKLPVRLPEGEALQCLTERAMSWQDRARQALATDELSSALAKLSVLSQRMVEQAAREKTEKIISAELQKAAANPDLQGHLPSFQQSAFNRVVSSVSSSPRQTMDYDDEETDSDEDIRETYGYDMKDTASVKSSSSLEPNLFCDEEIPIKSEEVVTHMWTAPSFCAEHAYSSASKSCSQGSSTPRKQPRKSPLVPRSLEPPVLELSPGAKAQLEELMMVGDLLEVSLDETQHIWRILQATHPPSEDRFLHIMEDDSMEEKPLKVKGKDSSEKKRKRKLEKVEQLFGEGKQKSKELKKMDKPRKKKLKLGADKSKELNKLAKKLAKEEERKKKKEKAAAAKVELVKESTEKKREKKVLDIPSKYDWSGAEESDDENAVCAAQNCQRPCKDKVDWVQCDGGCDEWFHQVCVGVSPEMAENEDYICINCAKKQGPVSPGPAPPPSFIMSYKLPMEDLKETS

## O=C(O)CCC(=O)O [succinate]
RPE cells [1]; 2 mM succinate, 48 h normoxia then 1% O2 24 h
  hypoxia-dependent copy gain of 1q12h (FISH): can be suppressed
RPE cells [1]; 2 mM succinate, 48 h normoxia then 1% O2 24 h, listed as Succinate
  hypoxia-dependent copy gain of 1q12h (FISH): sufficient to abrogate
KDM4A
  KDM4A stabilization / protein levels in hypoxia: does not alter KDM4A protein levels
KDM4A; listed as Succinate
  KDM4A stabilization / protein levels in hypoxia: did not alter
RPE cells [2]; 1% O2
  cell cycle progression in hypoxia: no difference in cell cycle phases
RPE cells [2]; 1% O2, listed as Succinate
  cell cycle progression in hypoxia: did not alter
JmjC-containing proteins
  inhibition of JmjC-containing proteins: can be inhibited

## Clc1ccc(N/N=C(\c2ccccc2)c2ccccn2)nc1 [JIB-04]
RPE cells [1]; 62.5 nM JIB-04 pre-treated 24 h, treated again, 1% O2 24 h
  hypoxia-dependent copy gain of 1q12h (FISH): significantly reduced; also recorded: blocks hypoxia-dependent copy gain
KDM4A; JIB-04 62.5 nM
  KDM4A protein levels in hypoxia: did not substantially alter; also recorded: does not alter KDM4A protein levels
RPE cells [2]; JIB-04 62.5 nM, 1% O2
  cell cycle profiles in hypoxia: did not substantially alter; also recorded: no difference in cell cycle phases
KDM4 family
  inhibition of the KDM4 family: inhibits
KDM5A
  inhibition of KDM5A: inhibits
KDM6B
  inhibition of KDM6B: inhibits

## CC(=O)N[C@@H](CS)C(=O)O [N-Acetyl Cysteine, N-acetyl Cysteine]
RPE cells [3]
  site-specific copy gain (FISH for 1q12h, Chr 8, 1q23.3, 1q21.2): did not induce site-specific copy gain
RPE cells [3]; listed as N-acetyl Cysteine
  site-specific copy gain (FISH for 1q12h, Chr 8, 1q23.3, 1q21.2): do not induce site-specific copy gains

## Tunicamycin
RPE cells [3]
  site-specific copy gain (FISH for 1q12h, Chr 8, 1q23.3, 1q21.2): does not promote copy gain

## O[C@@H](CS)[C@@H](O)CS [DTT]
RPE cells [3]
  site-specific copy gain (FISH for 1q12h, Chr 8, 1q23.3, 1q21.2): did not induce site-specific copy gain; also recorded: do not induce site-specific copy gains

## OO [H2O2]
RPE cells [3]
  site-specific copy gain (FISH for 1q12h, Chr 8, 1q23.3, 1q21.2): does not promote copy gain

## COC1=C(OC)C(=O)c2ccccc2C1=O [DMNQ, 2,3-Dimethoxy-1,4-naphthoquinone]
RPE cells [3]
  site-specific copy gain (FISH for 1q12h, Chr 8, 1q23.3, 1q21.2): did not induce site-specific copy gain; also recorded: do not induce site-specific copy gains

— patent publication US20180127748A1, “METHODS RELATING TO THE PREVENTION AND TREATMENT OF DRUG RESISTANCE” (THE GENERAL HOSPITAL CORPORATION, priority 2015, published 2018)
